Marks after values point to notes of the source that are not given here.
What was measured:
Assay type in all cases: in vivo, rat
[1] = Sciatic nerve water content; details: for Water: sciatic nerve, Ponalrestat 50 mg/kg daily oral, two months
Experimental: (§1) These studies were conducted with the approval of the San Diego Veterans Administration Animal Studies Subcommittee. Female Sprague-Dawley rats (240-300 g; Charles River, San Diego, Calif.) were housed in cages with wire bottoms to reduce contact with urine and feces. Groups were established and fed either a 40% D-galactose diet or a control diet specially formulated by Purina that contained 40% solka floc, a nonnutritive fiber, to balance nutritional intake. All diets contained 100% of the micronutrients required by rats and, with water, were available ad libitum. Each of these diet groups contained animals that were treated with the ARI, Ponalrestat (50 mg/kg), daily by oral gavage. After two months, rats were anesthetized by intraperitoneal injection (1 ml/kg ip) of pentobarbital sodium (12.5 mg/ml) and diazepam (1.25 mg/ml) in bacteriostatic saline. Under deep anesthesia, motor nerve conduction velocity (MNCV) was measured in the left hindlimb prior to removal of the sciatic nerve. […]
(§2) For determination of water content and dry weight, distal segments of sciatic nerve were lightly blotted, weighed prior to freeze-drying and reweighed. Nerve polyols were measured by gas chromatography with α-methylmannoside as an internal standard (Mizisin et al., (1993) J. Neurol. Sci. 116:67-72) using a Hewlett Packard 5890 gas chromatograph (Hewlett Packard, Avondale, Pa.) fitted with a flame ionization detector and a 25 m×0.2 mm capillary column (Hewlett Packard Ultra 1). Nerve water and polyol contents are expressed as mg and nmol per mg nerve dry weight, respectively.
The effect of two months of galactose feeding and ARI treatment on body weight, nerve water and polyol content, and MNCV is shown in Table 1. Data are presented as mean ±SD (N=8 to 10) and were analyzed with a one way ANOVA after which multiple comparisons were made with the Student-Newman-Keuls test. […] ARI-treated animals received a daily oral gavage (50 mg/kg) of Ponalrestat (ND—Not detected).

CNTF = assay: Sciatic nerve CNTF protein by ELISA; details: P<0.05
Experimental: as §1
CNTF protein was determined with an ELISA that utilizes a monoclonal capture antibody which recognizes a non-C-terminal epitope on both rat and human CNTF (Regeneron, Tarrytown, N.Y.). […] The reaction was stopped with 0.5 N H2SO4 and the plates read at two wavelengths (490 nm and 650 nm).

CNTF mRNA = assay: Sciatic nerve CNTF mRNA by Northern blot; details: control and galactose-fed rats
Experimental: as §1, with “After two months, rats were anesthetized by intraperitoneal injection (1 ml/kg ip) of pentobarbital sodium (12.5 mg/ml) and diazepam (1.25 mg/ml) in bacteriostatic saline.” left out
CNTF mRNA levels in sciatic nerve were obtained by first homogenizing 1 cm segments of nerve on ice for 30 seconds in 4 M guanidine thiocyanate containing 0.1 M β-mercaptoethanol, 25 mM sodium citrate and 0.5% sarcosyl (pH 7.0). […] Autoradiographic bands were quantified using an Ultrascan XL laser densitometer (LKB, Uppsala, Sweden). Ratios of CNTF:GAPDH were determined using optical densities in the linear range for both probes.

aldose reductase = assay: Sciatic nerve polyol content by gas chromatography
Experimental: These studies were conducted with the approval of the San Diego Veterans Administration Animal Studies Subcommittee. Female Sprague-Dawley rats (240-300 g; Charles River, San Diego, Calif.) were housed in cages with wire bottoms to reduce contact with urine and feces. Groups were established and fed either a 40% D-galactose diet or a control diet specially formulated by Purina that contained 40% solka floc, a nonnutritive fiber, to balance nutritional intake. All diets contained 100% of the micronutrients required by rats and, with water, were available ad libitum. Each of these diet groups contained animals that were treated with the ARI, Ponalrestat (50 mg/kg), daily by oral gavage. After two months, rats were anesthetized by intraperitoneal injection (1 ml/kg ip) of pentobarbital sodium (12.5 mg/ml) and diazepam (1.25 mg/ml) in bacteriostatic saline. Under deep anesthesia, motor nerve conduction velocity (MNCV) was measured in the left hindlimb prior to removal of the sciatic nerve. The proximal portion was processed for subsequent light microscopic examination and the distal portion used for gas chromatographic analysis of nerve polyols. The contralateral sciatic nerve was removed and used for assay of CNTF-like neurotrophic activity and either Northern blot or ELISA analysis of CNTF mRNA or protein, respectively.
as §2
Data are presented as mean ±SD (N=8 to 10) and were analyzed with a one way ANOVA after which multiple comparisons were made with the Student-Newman-Keuls test. Mean dulcitol levels were compared with an unpaired, two-tailed t test. Control and animals received a diet containing 0% D-galactose and galactose animals a diet containing 40% D-galactose for two months.

[2] = sciatic nerve, 40% D-galactose diet rats, Ponalrestat 50 mg/kg daily oral, two months

In the case of `O=C(O)Cc1nn(Cc2ccc(Br)cc2F)c(=O)c2ccccc12` [Ponalrestat, 3-(4-bromo-2-fluorobenzyl)-4-oxo-3H-phthalazin-1-ylacetic acid], the “Nerve water content (in words)” value ([1]; galactose-fed rats) is reported as “restored”, the Water ([1]; 40% D-galactose diet rats) is reported as 1.8 ± 0.3^a mg/mg dry wt and the Water ([1]; control diet rats) is reported as 1.8 ± 0.1^a mg/mg dry wt. For the same compound, the “Increase of CNTF detected by ELISA relative to untreated control rats” value (CNTF; control animals) was 50%, the “Increase of CNTF detected by ELISA relative to untreated control rats” value (CNTF; galactose-fed animals) was 50% and the “Level of CNTF message, CNTF:GAPDH ratios” value (CNTF mRNA) was “no marked effect”. For the same compound, the “Dulcitol accumulation (in words)” value (aldose reductase; galactose-fed rats) was “attenuated”, the “Nerve myo-inositol content (in words)” value (aldose reductase; galactose-fed rats) was “restored” and the Dulcitol (aldose reductase; [2]) was 12.2 ± 3.8 nmol/mg dry wt. For the same compound, the myo-Inositol (aldose reductase; [2]) was 9.4 ± 1.9^a nmol/mg dry wt and the myo-Inositol (aldose reductase; sciatic nerve, control diet rats, Ponalrestat 50 mg/kg daily oral, two months) was 12.3 ± 1.5^b nmol/mg dry wt.
